This note sets out measurements from patent publication US6833377B2, “Composition and method for potentiating drugs” (priority 2001, dated 2004).

Structures are written as SMILES. “And” between values parts separate entries of the source, which are not always exact repeats. Equal entries are not always repeated. Where two headings read alike, the source gives them in different places.

This test deals with pentylenetetrazole seizures. The following applies: diazepam alone, pentylenetetrazole 70 mg/kg. The procedure: For these studies, solutions of the composition of the invention were used, which. were prepared using distilled water immediately before administration. The solutions were administered either orally (IG), by a rigid metal probe into the cardiac section of the stomach at a total amount of 0.8 ml, or intramuscularly (IM) at an amount of 0.2 ml, 30 min before testing.
Anticonvulsive effects of drugs and their compositions was studied on the model of pentetrazole seizures [Parsons C. G . Quack G., Bresink I., Baran L., Przegalinski F., Kostowski. W., Krzascik P., Hartmann. S., Danysz W. Neuropharmacology (1995) 34(10):1239-1258).
To estimate the potentiation of diazepam effect, its minimal effective dose in the composition preventing clonico-tonic and clonic seizures in 80% of rats was determined.

Turning to `CN1C(=O)CN=C(c2ccccc2)c2cc(Cl)ccc21` [Diazepam], the “Minimal dose of diazepam preventing clonico-tonic pentylenetetrazol seizures in 80% of rats” value (IG) is 2.5 mg/kg and 2.5 ± 0.3 mg/kg; the “Minimal dose of diazepam preventing clonico-tonic pentylenetetrazol seizures in 80% of rats” value (IM) is 6.7 mg/kg and 6.7 ± 0.7 mg/kg.
